Experimental data published in US20150118229A1, “JAK1 SELECTIVE INHIBITOR AND USES THEREOF” (ABBVIE INC., priority 2013, published 2015).
pIC50: −log10 of the molar value. Where “and” joins values, the source holds several entries; their conditions need not be identical. Equal values may be shown once. Entries after “also recorded” stand apart in the source; their conditions may differ. Read-outs that look alike come from different tables or passages of the source.

Key:
[1] = Pharmacokinetics across species; type: in vivo; settings: rat, monkey, dog, plasma
[2] = Pivotal 4-week GLP oral toxicity study in dogs; type: in vivo, beagle dogs
Text: (§1) The GLP-compliant studies each included 4 weeks of oral dosing followed by a 4-week recovery period in both rats and dogs followed by GLP-compliant chronic toxicity studies in rats (6 months of oral dosing) and dogs (9 months of oral dosing).

[3] = target: Rock1 (Homo sapiens, UniProt Q13464); assay: Kinase panel, Rock1; type: biochemical
[4] = Metabolic stability in hepatocytes, monkey; type: in vitro ADME; settings: read-out: intrinsic clearance in hepatocytes (converted)
[5] = Metabolic stability in hepatocytes, dog; type: in vitro ADME; settings: read-out: intrinsic clearance in hepatocytes (converted)
[6] = test system: Balb/c 3T3 mouse fibroblasts; assay: Neutral red uptake phototoxicity assay; type: cell-based
[7] = target: OATP1B3 (Homo sapiens, UniProt Q9NPD5); assay: Transporter inhibition, OATP1B3; settings: up to 30 μM
OATP1B3, sequence (Q9NPD5 whole entry): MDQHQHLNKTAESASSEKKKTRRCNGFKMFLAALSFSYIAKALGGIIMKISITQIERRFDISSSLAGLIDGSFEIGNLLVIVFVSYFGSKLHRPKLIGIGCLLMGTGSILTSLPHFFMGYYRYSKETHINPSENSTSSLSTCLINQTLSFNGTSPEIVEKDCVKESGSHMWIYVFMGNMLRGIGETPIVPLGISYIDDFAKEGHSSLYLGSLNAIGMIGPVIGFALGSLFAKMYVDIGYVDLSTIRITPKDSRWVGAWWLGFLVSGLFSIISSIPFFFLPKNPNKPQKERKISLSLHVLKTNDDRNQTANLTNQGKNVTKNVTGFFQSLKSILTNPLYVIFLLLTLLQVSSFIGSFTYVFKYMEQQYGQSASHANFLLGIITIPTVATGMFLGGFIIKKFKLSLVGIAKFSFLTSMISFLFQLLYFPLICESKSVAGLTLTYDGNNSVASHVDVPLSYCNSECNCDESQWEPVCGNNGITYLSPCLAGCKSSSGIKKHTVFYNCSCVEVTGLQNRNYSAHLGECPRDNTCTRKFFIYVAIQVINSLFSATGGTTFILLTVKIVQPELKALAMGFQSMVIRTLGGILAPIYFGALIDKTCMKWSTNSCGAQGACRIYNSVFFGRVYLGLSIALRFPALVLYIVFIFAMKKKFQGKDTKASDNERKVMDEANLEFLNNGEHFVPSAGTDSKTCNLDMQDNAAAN

[8] = target: CYP2C19 (Homo sapiens, UniProt P33261); assay: CYP inhibition in human liver microsomes, CYP2C19
CYP2C19, sequence (P33261 whole entry): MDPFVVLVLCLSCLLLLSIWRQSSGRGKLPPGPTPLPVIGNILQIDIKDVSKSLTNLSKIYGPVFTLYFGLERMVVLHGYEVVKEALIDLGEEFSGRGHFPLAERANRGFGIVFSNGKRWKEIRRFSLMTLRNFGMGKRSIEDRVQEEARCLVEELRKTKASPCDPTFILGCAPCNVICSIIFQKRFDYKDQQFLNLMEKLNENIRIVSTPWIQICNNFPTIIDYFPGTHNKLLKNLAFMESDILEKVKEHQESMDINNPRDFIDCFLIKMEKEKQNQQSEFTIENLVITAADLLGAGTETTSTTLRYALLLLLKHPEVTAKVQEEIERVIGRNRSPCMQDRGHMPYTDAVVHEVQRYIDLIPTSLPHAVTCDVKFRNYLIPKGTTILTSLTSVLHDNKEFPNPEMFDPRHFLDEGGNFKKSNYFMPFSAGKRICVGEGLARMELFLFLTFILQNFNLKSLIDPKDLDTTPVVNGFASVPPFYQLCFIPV

[9] = Pivotal 4-week GLP oral toxicity study in rats; settings: rat, 4 weeks; leading number = dose mg/kg/day
Protocol: The 4-week rat study was conducted at dose levels of 0, 10, 50, 100, and 200 mg/kg/day by daily oral administration (gavage). […] The cause of death was not determined for animals that died.

[10] = test system: GMCSF-induced pSTAT5 (Jak2 signaling); assay: Ex vivo stimulation assay GM-CSF pSTAT5, orally dosed human; settings: 24 mg but not 12 mg oral, 1 hour post dose
[11] = test system: CYP1A2; assay: CYP induction (mRNA) in human hepatocytes, CYP1A2; type: in vitro ADME; settings: 1, 3, and 10 μM
[12] = target: OCT2 (Homo sapiens, UniProt O15244); assay: Transporter inhibition, OCT2; settings: up to 30 μM
OCT2, sequence (O15244 whole entry): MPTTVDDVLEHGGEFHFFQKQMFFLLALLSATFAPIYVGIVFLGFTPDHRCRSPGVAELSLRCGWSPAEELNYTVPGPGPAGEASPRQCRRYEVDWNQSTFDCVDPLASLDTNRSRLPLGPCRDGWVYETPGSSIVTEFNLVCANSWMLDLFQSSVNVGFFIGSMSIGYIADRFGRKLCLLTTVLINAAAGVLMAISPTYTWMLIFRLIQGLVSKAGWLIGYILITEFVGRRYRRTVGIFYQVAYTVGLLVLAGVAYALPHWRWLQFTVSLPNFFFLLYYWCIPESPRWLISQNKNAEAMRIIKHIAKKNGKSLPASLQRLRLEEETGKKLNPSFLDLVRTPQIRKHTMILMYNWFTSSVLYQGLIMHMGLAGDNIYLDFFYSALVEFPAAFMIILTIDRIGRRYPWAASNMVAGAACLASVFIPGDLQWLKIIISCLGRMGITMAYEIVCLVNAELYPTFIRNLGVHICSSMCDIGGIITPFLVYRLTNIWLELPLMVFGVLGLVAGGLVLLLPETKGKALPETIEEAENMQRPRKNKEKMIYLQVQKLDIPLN

[13] = target: CYP2D6 (Homo sapiens, UniProt P10635); assay: CYP inhibition in human liver microsomes, CYP2D6
CYP2D6, sequence (P10635 whole entry): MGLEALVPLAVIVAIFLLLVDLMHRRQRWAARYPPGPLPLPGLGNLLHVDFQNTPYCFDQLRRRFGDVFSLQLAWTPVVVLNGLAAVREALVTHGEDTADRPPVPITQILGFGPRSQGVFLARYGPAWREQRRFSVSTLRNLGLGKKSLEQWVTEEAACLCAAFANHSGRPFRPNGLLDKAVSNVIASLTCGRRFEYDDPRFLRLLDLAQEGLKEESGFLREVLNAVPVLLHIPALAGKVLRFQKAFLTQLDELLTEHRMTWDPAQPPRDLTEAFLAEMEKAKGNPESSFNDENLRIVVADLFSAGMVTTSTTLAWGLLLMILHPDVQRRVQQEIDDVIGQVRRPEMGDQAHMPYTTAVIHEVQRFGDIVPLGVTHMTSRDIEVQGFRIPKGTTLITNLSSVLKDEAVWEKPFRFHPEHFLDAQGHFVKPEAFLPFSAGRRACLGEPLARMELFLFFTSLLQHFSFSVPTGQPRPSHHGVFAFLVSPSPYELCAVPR

[14] = Pharmacokinetics in monkey; type: in vivo; settings: for Vd: read-out: Vss
[15] = test system: adjuvant-induced arthritis (paw swelling, bone erosion); assay: Adjuvant-induced arthritis (AIA) in Lewis rats; type: in vivo
Protocol: The inflammation appears in the contra-lateral (left) hind paw seven days after the initial immunization. […] Rats are lightly anesthetized with an inhalant anesthetic (isoflurane) and the contra-lateral (left) hind paw is dipped into the plethysmograph and the paw volume is recorded. The rats are scored every other day up to day 17 after immunization. […] Bone volume and density is determined for a 360 μm (200 slice) vertical section encompassing the tarsal section of the paw. […] Drug exposure is determined in the plasma using LC/MS.

[16] = test system: EPO dependent reticulocyte deployment; assay: Reticulocyte deployment assay (i.v. EPO) in rats; type: in vivo; settings: over the exposure range efficacious in rat AIA
Text: Reticulocytes were deployed with an i.v. EPO injection, which produced a modest but very precise reticulocytosis.
In contrast, PBS control has negligible (if any) effect. This is consistent with the fact that EPO signals through Jak2 to stimulate reticulocyte development.

[17] = 6-month (26 weeks) GLP chronic oral toxicity study in rats; type: in vivo, rat; settings: for AUC(0-t) / Cmax: po, rat 20 mg/kg/day; for AUC(0-t): read-out: AUC0-24 at NOAEL; for Cmax: read-out: Cmax at NOAEL
Protocol: as §1
The 6-month chronic rat study was conducted at dose levels of 0, 5, 20, and 50 mg/kg/day by daily oral administration (gavage).

[18] = Metabolic stability in hepatocytes, rat; type: in vitro ADME; settings: read-out: intrinsic clearance in hepatocytes (converted)
[19] = Plasma protein binding, monkey; type: in vitro ADME
[20] = target: Rock2 (Homo sapiens, UniProt O75116); assay: Kinase panel, Rock2; type: biochemical
Rock2, sequence (O75116 whole entry, species assumed): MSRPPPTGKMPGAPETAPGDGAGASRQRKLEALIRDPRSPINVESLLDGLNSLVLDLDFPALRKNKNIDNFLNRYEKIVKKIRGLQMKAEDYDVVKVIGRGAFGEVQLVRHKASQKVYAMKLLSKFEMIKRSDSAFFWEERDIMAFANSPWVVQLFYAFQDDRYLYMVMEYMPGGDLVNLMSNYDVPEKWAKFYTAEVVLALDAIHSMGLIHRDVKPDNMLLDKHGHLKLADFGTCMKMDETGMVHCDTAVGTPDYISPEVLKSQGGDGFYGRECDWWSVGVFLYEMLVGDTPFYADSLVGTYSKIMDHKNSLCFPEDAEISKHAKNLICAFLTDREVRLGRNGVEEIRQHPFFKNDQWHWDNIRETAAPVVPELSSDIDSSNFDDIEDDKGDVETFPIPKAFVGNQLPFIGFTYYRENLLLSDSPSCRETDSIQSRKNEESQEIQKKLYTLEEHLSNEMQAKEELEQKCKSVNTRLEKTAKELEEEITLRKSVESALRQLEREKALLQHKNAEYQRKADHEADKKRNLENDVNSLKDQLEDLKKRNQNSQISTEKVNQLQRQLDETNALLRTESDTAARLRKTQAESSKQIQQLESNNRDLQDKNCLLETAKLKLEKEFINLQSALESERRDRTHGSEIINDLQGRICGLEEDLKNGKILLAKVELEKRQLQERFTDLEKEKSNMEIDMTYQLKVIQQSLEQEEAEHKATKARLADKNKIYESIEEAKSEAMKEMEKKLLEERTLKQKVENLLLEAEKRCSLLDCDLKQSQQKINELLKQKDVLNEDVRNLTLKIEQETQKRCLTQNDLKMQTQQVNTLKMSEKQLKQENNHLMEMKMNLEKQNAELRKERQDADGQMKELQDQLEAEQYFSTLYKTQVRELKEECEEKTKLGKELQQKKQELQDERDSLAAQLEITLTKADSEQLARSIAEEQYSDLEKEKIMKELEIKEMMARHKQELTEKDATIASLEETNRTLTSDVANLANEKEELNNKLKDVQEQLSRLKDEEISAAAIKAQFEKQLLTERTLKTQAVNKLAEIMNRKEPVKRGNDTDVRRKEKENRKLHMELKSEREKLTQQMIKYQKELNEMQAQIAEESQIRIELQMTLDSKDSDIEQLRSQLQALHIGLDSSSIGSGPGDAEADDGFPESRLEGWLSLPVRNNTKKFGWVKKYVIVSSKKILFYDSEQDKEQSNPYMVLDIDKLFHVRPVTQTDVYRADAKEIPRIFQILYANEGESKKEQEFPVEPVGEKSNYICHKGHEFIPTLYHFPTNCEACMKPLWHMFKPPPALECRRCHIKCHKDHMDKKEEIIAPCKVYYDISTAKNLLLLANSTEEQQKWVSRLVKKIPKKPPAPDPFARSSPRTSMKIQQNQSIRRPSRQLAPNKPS

[21] = target: CYP1A2 (Homo sapiens, UniProt P05177); assay: CYP inhibition in human liver microsomes, CYP1A2
CYP1A2 (Homo sapiens, UniProt P05177), sequence (P05177 whole entry): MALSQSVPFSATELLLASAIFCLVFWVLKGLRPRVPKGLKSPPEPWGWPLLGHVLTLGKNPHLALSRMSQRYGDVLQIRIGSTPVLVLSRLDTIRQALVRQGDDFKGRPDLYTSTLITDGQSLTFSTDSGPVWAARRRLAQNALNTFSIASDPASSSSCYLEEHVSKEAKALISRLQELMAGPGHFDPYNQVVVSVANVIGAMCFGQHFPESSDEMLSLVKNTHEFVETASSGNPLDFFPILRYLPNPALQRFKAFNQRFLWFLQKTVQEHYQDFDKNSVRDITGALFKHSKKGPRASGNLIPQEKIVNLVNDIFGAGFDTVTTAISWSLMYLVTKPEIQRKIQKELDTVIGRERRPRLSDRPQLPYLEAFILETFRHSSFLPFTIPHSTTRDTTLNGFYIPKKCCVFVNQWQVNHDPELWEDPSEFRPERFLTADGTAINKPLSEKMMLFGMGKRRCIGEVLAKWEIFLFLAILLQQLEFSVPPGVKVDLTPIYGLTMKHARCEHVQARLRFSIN

[22] = Plasma protein binding, dog; type: in vitro ADME
[23] = target: CYP3A4 (midazolam/testosterone) (Homo sapiens, UniProt P08684); assay: CYP inhibition in human liver microsomes, CYP3A4
CYP3A4 (midazolam/testosterone), sequence (P08684 whole entry): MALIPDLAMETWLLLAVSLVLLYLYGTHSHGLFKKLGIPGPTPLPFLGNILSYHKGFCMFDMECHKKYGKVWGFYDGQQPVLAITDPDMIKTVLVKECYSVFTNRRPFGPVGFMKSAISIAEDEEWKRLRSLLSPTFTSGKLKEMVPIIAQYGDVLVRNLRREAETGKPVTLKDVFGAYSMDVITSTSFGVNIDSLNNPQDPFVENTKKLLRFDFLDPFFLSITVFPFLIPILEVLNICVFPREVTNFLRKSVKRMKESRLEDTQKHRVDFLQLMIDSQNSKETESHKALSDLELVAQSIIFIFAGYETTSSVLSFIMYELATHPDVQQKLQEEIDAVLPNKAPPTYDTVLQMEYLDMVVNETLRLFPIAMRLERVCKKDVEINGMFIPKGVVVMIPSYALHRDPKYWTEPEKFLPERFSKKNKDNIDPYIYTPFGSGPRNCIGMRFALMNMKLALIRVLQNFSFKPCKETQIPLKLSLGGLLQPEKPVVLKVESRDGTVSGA

[24] = Metabolic stability in liver microsomes, human; type: in vitro ADME; settings: read-out: intrinsic clearance in liver microsomes (converted)
[25] = plasma, oral 1 mg/kg single dose, mean (SD)
[26] = plasma, oral 10 mg/kg single dose, mean (SD)

`CC[C@@H]1CN(C(=O)NCC(F)(F)F)C[C@@H]1c1cnc2cnc3[nH]ccc3n12` [Compound 1, (3S,4R)-3-ethyl-4-(3H-imidazo[1,2-a]pyrrolo[2,3-e]pyrazin-8-yl)-N-(2,2,2-trifluoroethyl)pyrrolidine-1-carboxamide] showed a Vd ([1]; iv, all species, read-out: Vss) of 1.6 to 2.7 L/kg, a half-life ([1]; oral, read-out: plasma elimination half-life after oral dosing) of 180 to 300 min and an NOAEL at 4 weeks ([2]; both sexes, beagle, in vivo, dog, 4 weeks GLP, oral capsule) of 1.5 mg/kg/day. For the same compound, the AUC(0-t) ([2]; both, beagle, plasma, oral, dog 1.5 mg/kg/day, males and females combined, read-out: AUC0-24 at NOAEL) was 1200 ng·h/mL, the “decreases in red cell mass (up to)” value ([2]; dog, 3 mg/kg/day) was −23% and the “decreases in circulating lymphocytes compared with baseline” value ([2]; dog, 5 mg/kg/day) was −20% to −37%. The “decreases in red cell mass (up to)” value ([2]; dog, 5 mg/kg/day) was −32%, the “Adverse Findings” value ([2]; dog, 4 weeks GLP, leading number = dose mg/kg/day) was “≧3: Popliteal lymph” and the pIC50 [3] was 6.26. For the same compound, the CLint scaled at 1 μM [4] was 6.88 mL/min/kg, the CLint scaled at 1 μM [5] was 6.92 mL/min/kg and the phototoxicity potential [6] was “negative”. The “inhibition of OATP1B3 uptake” value [7] was “No significant inhibition”, the “time-dependent inhibition of CYP2C19” value ([8]; human liver microsomes) was “No obvious time-dependent inhibition” and the “inhibition of CYP2C19” value ([8]; up to 30 μM) was “did not inhibit; also recorded: not an inhibitor”. For the same compound, the “Adverse Findings” value [9] was “≧100: Mortality”, the “inhibition of GMCSF-induced pSTAT5” value [10] was “partial inhibition” and the “mRNA expression of CYP1A2” value [11] was “did not increase”. The “inhibition of OCT2 uptake” value [12] was “No significant inhibition”, the “time-dependent inhibition of CYP2D6” value ([13]; human liver microsomes) was “No obvious time-dependent inhibition” and the “inhibition of CYP2D6” value ([13]; up to 30 μM) was “did not inhibit; also recorded: not an inhibitor”. The Vc ([14]; IV 0.1 mg/kg single dose) was 1.2 L/kg, the Vβ ([14]; IV 0.1 mg/kg single dose) was 2.2 L/kg and the Vc ([14]; IV 1.0 mg/kg single dose) was 1.0 L/kg. For the same compound, the Vβ ([14]; IV 1.0 mg/kg single dose) was 2.2 L/kg, the F ([14]; oral 1 mg/kg single dose, mean (SD), 1 mg/kg) was 59.3% and 59.3 (18.1) % and the F ([14]; oral 10 mg/kg single dose, mean (SD)) was 52.3 (12.4) %. It also gave an AUC(0-inf) ([14]; plasma, IV 0.1 mg/kg single dose, mean (SD)) of 72 ng·h/mL, a clearance ([14]; plasma, IV 0.1 mg/kg single dose, mean (SD), read-out: CLp (converted)) of 23.3 mL/min/kg and a Vd ([14]; plasma, IV 0.1 mg/kg single dose) of 1.9 L/kg. It also gave a half-life ([14]; plasma, IV 0.1 mg/kg single dose, read-out: t1/2 (converted)) of 66 min, an AUC(0-inf) ([14]; plasma, IV 1.0 mg/kg single dose, mean (SD)) of 947 ng·h/mL and a clearance ([14]; plasma, IV 1.0 mg/kg single dose, mean (SD), read-out: CLp (converted)) of 20 mL/min/kg. For the same compound, the Vd ([14]; plasma, IV 1.0 mg/kg single dose) was 1.6 L/kg, the half-life ([14]; plasma, IV 1.0 mg/kg single dose, read-out: t1/2 (converted)) was 78 min and the clearance ([14]; plasma, IV, read-out: clearance (converted)) was 21.7 mL/min/kg. The half-life ([14]; plasma, IV, read-out: plasma elimination t½ (converted)) was 72 min, the AUC(0-inf) [14, 25] was 562 ng·h/mL and the Cmax [14, 25] was 134 ng/mL. The AUC(0-inf) [14, 26] was 4950 ng·h/mL, the Cmax [14, 26] was 960 ng/mL and the Tmax [14, 26] was 4.3 h. For the same compound, the “protection of bone erosion (tarsal bone volume, micro CT)” value ([15]; 3 mg/kg bid) was “complete protection”, the “efficacious exposure (AUC60), PK/PD modeling” value ([15]; AIA rats, about 60% inhibition of paw swelling) was 85 ng·h/mL and the “AUC60 (60% inhibition of paw swelling), total AUC0-12” value ([15]; oral bid, last day of study) was 85 ± 20 ng·h/mL and 85 ng·h/mL. The “AUC60, fraction unbound AUC0-12” value ([15]; oral bid, last day of study) was 34 ± 7 ng·h/mL, the “Paw Swelling (exposure)” value ([15]; rat AIA) was 62 ng·h/mL and the “inhibition of Paw Swelling reached at about the same level of reticulocyte inhibition” value ([15]; rat AIA vs reticulocyte deployment) was “about 80%”. For the same compound, the “effects on reticulocyte deployment” value [16] was “less than that of Tofacitinib”, the AUC(0-t) ([17]; female, in vivo, females) was 6840 ng·h/mL and the Cmax ([17]; female, in vivo, females) was 2240 ng/mL. It also gave an NOAEL at 6 months ([17]; in vivo, rat, 6 months (26 weeks) oral gavage) of 20 mg/kg/day, an AUC(0-t) ([17]; male, in vivo, males) of 3830 ng·h/mL and a Cmax ([17]; male, in vivo, males) of 1110 ng/mL. For the same compound, the “Adverse Findings” value ([17]; rat, 26 weeks, 50 mg/kg/day) was 50: Kidneys-tubular, the CLint scaled at 1 μM [18] was 67.8 mL/min/kg and the fraction unbound [19] was 0.61. The pIC50 [20] was 6.37, the “time-dependent inhibition of CYP1A2” value ([21]; human liver microsomes) was “No obvious time-dependent inhibition” and the “inhibition of CYP1A2” value ([21]; up to 30 μM) was “did not inhibit; also recorded: not an inhibitor”. For the same compound, the fraction unbound [22] was 0.82, the “time-dependent inhibition of CYP3A4” value ([23]; human liver microsomes) was “No obvious time-dependent inhibition” and the “inhibition of CYP3A4 (midazolam/testosterone)” value ([23]; up to 30 μM) was “did not inhibit; also recorded: not an inhibitor”. The CLint scaled at 0.5 μM [24] was 31.2 mL/min/kg.
